Measurements: patent US20240140941A1, “DERIVATIVE OF 2,5-DIKETOPIPERAZINE COMPOUND, AND PREPARATION METHOD THEREFOR, PHARMACEUTICAL COMPOSITION THEREOF AND USE THEREOF” (DALIAN WZ PROBIOTICS AD HEALTH CO., LTD, priority 2020, published 2024)
Structures can show the parent of a compound that is named as a salt. Where two headings read alike, the source gives them in different places.

Columns and labels:
[1] = Compound solubility experiment, Method 1: equilibrium solubility in pure water, LC-MS; type: physicochemical; settings: ultrapure water, 37±1° C., shaken 24 hours; for solubility at 24 h: 37 °C, thermodynamic from solid
Procedure: Method 1: A 1.5 mL brown EP tube was taken, about 1 mg of compound was weighed respectively, and 1 mL of ultrapure water was added thereto. The mixture was vortexed, and sonicated until the compound was no longer dissolved (the solution was turbid or had suspended particles). The mixture was put into an incubation shaker, maintained at a temperature of (37±1° C.), shaken at 100 r/min for 24 hours, so as to achieve full dissolution equilibrium. After 24 hours, the supernatant was quickly filtered through a 0.45 μm microporous membrane, and the initial filtrate was discarded. 200 μL of the renewed filtrate was taken and diluted with 200 μL of methanol. The assay was repeated at least three times. According to the chromatographic conditions, the sample was injected by LC-MS, and the peak area was measured and the equilibrium solubility of each 2,5-diketopiperazine derivative in pure water was calculated.

NCI-H460 = assay: Inhibition test on cell proliferation (MTT), NCI-H460; type: cell-based, human; settings: 72 hours of drug treatment, MTT, read-out: IC50 (nM) NCI-H460
Procedure, shortened: (§1)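 Cells plated at 2000-6000 per well, allowed to adhere for 24 h, then exposed to serially diluted compound for 72 h at 37 °C, 5% CO2. Viability read by MTT reduction, with formazan dissolved in DMSO and absorbance taken at 490 nm. Inhibition rate calculated relative to untreated and zero-setting wells.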

BxPC-3 = assay: Inhibition test on cell proliferation (MTT), BxPC-3; type: cell-based, human; settings: 72 hours of drug treatment, MTT, read-out: IC50 (nM) BxPC-3
Procedure, shortened: as §1

HCC-LM3 = assay: Inhibition test on cell proliferation (MTT), HCC-LM3; type: cell-based, human; settings: 72 hours of drug treatment, MTT, read-out: IC50 (nM) HCC-LM3
Procedure, shortened: as §1

HT-29 = assay: Inhibition test on cell proliferation (MTT), HT-29; type: cell-based, human; settings: 72 hours of drug treatment
Procedure: Tumor cells (NCI-H460, BxPC-3, HT-29, HCC-LM3) in the logarithmic growth phase were digested, centrifuged, and the supernatants were removed. Cells were resuspended by adding fresh culture medium, and counted using a cell counting plate. 100 μL of culture medium (containing cells) was added to a 96-well plate according to the standard of 2000 to 6000 cells per well and incubated in an incubator (37° C., 5% CO2) for 24 hours. After the cells were completely adhered to the wall, the test sample and Plinabulin were diluted to different concentrations using fresh culture medium, and 4 wells were set for each concentration. After 72 hours of drug treatment, the culture medium was removed, and 20 μL of MTT at a concentration of 5 mg/mL was added to each well. After 3-4 hours in the incubator, the MTT was discarded, and 100 μL of DMSO was added to each well, and placed in a 96-well plate shaker to completely dissolve the purple formazan. Subsequently, the absorbance (OD value) was detected at a wavelength of 490 nm using a microplate reader. The experiment also required setting up zero-setting wells (blank culture medium, MTT, DMSO). Cell inhibition rate=1−(OD value of drug-dosed group−OD value of zero-setting group)/(OD value of blank group−OD value of zero-setting group)×100%.

[2] = Compound solubility experiment, Method 2: about 2 mg salt in 0.2 mL ultrapure water, dissolution observed; type: physicochemical; settings: 37 °C, thermodynamic from solid, salts, 37±1° C., shaken 24 hours
Procedure: Method 2: A 0.5 mL brown EP tube was taken, about 2 mg of hydrochloride of derivatives of 2,5-diketopiperazine compounds was weighed respectively, and 0.2 mL of ultrapure water was added thereto. The mixture was vortexed, put into an incubation shaker, maintained at a temperature of (37±1° C.), shaken at 100 r/min for 24 hours, so as to achieve full dissolution equilibrium. The dissolution of the mixture was observed.

| SMILES | solubility at 24 h [1] [µg/mL] | IC50 (NCI-H460; Homo sapiens, NCI-H460, 72 h) [nM] | IC50 (BxPC-3; Homo sapiens, BXPC-3, 72 h) [nM] | IC50 (HCC-LM3; Homo sapiens, HCCLM3, 72 h) [nM] | IC50 (HT-29; Homo sapiens, HT-29, 72 h) [nM] | melting point [°C] | also measured |
| --- | --- | --- | --- | --- | --- | --- | --- |
| CC(C)c1c(/C=c2\[nH]c(=O)/c(=C/c3cc(F)cc(F)c3)[nH]c2=O)ncn1CCCN1CCOCC1 [PLN-2-62] | < 0.5 | 4.17 ± 0.75 | 3.44 ± 0.12 | 3.89 ± 0.16 | 3.49 ± 0.23 | – | – |
| CC(C)(C)c1[nH]cnc1/C=c1\[nH]c(=O)/c(=C/c2ccccc2)[nH]c1=O [Plinabulin hydrochloride, reference compound] | – | – | – | – | – | – | Solubility [1]: 7654 ng/mL |
| CC(C)c1c(/C=c2\[nH]c(=O)/c(=C/c3cccc(F)c3)[nH]c2=O)ncn1CCCN1CCOCC1 [PLN-2-9, (3Z,6Z)-3-fluorophenylmethylene-6-((5-isopropyl-1-(−3-morpholinyl)propylimidazol-4-yl)methylene)piperazine-2,5-dione] | < 0.5 | 8.51 ± 0.1 | 5.47 ± 0.57 | 5.13 ± 0.12 | 4.37 ± 0.62 | – | – |
| O=c1[nH]/c(=C\c2ncn(CCCN3CCOCC3)c2C2CC2)c(=O)[nH]/c1=C\c1cccc(Oc2ccc(F)cc2)c1 [PLN-2-4] | < 0.5 | 25.7 ± 2.62 | – | – | – | – | – |
| CC(C)c1c(/C=c2\[nH]c(=O)/c(=C/c3cccc(C(=O)c4ccc(F)cc4)c3)[nH]c2=O)ncn1CCCN1CCOCC1 [PLN-2-1, (3Z,6Z)-3-(3-(p-fluorobenzoyl)phenyl)methylene-6-((5-isopropyl-1-(3-morpholinyl)propylimidazol-4-yl)methylene)piperazine-2,5-dione] | < 0.5 | – | – | – | – | – | IC50 (NCI-H460): 3.45 ± 0.33 nM; IC50 (BxPC-3): 2.29 ± 0.82 nM; IC50 (HCC-LM3): 4.2 ± 0.12 nM; IC50 (HT-29): 1.03 ± 0.11 nM |
| C=CC(=O)N1CCN(CCCn2cnc(/C=c3\[nH]c(=O)/c(=C/c4cccc(F)c4)[nH]c3=O)c2C(C)C)CC1 [PLN-2-61-1] | – | – | – | – | – | 238.6 to 240.6 | IC50 (NCI-H460): 16.9 ± 1.29 nM; IC50 (BxPC-3): 9.37 ± 0.78 nM; IC50 (HCC-LM3): 16.5 ± 5.66 nM; IC50 (HT-29): 14 ± 0.58 nM |
| COc1cccc(/C=c2\[nH]c(=O)/c(=C/c3ncn(CCCN4CCOCC4)c3C(C)C)[nH]c2=O)c1 [PLN-2-52, (3Z,6Z)-3-(3-Methoxyphenyl)methylene-6-((5-isopropyl-1-(3-morpholinyl)propylimidazol-4-yl)methylene)piperazine-2,5-dione] | – | 16.5 ± 3.48 | 13.9 ± 0.89 | 7.54 ± 0.68 | 8.49 ± 0.54 | 184 to 186 | – |
| O=C(c1ccc(F)cc1)c1cccc(/C=c2\[nH]c(=O)/c(=C/c3ncn(CCCN4CCOCC4)c3C3CC3)[nH]c2=O)c1 [PLN-2-3] | < 0.25 | 4.9 ± 0.61 | 1.43 ± 0.95 | 6.31 ± 0.16 | 2.15 ± 0.33 | – | – |
| CC(C)c1c(/C=c2\[nH]c(=O)/c(=C/c3cccc(Oc4ccc(F)cc4)c3)[nH]c2=O)ncn1CCCN1CCOCC1 [PLN-2-2] | < 0.5 | 5.25 ± 0.49 | – | – | – | 194 to 195 | IC50 (BxPC-3): 4.63 ± 0.16 nM; IC50 (HCC-LM3): 5.58 ± 1.03 nM; IC50 (HT-29): 3.83 ± 0.43 nM |
| CC(C)c1c(/C=c2\[nH]c(=O)/c(=C/c3ccccc3)[nH]c2=O)ncn1CCCN1CCOCC1 [PLN-2-5, (3Z,6Z)-3-benzylidene-6-((5-isopropyl-1-(−3-morpholinyl)propylimidazol-4-yl)methylene)piperazine-2,5-dione] | < 0.5 | 19.4 ± 1.63 | 12.5 ± 1.47 | 9.78 ± 2.21 | 11.8 ± 1.31 | 199.1 to 201.1 | – |
| CC(C)c1c(/C=c2\[nH]c(=O)/c(=C/c3cccc(F)c3)[nH]c2=O)ncn1CCCN1CCO[C@@H](C)C1 [PLN-2-57, (3Z,6Z)-3-(3-Fluorophenyl)methylene-6-(5-isopropyl-1-(3-((S)-2-methylmorpholinyl)propylimidazol-4-yl)methylene)piperazine-2,5-dione] | – | 16.6 ± 4.94 | 8.56 ± 0.01 | 13.9 ± 2.5 | – | 211 to 213 | IC50 (HT-29): 5.07 ± 2.12 nM |
| O=c1[nH]/c(=C\c2ncn(CCCN3CCOCC3)c2C2CC2)c(=O)[nH]/c1=C\c1cccc(F)c1 [PLN-2-10, (3Z,6Z)-3-m-fluorophenylmethylene-6-((5-cyclopropyl-1-(−3-morpholinyl)propylimidazol-4-yl)methylene)piperazine-2,5-dione] | < 0.5 | 17.7 ± 5.18 | 8.97 ± 0.74 | 14.9 ± 0.22 | 10.6 ± 1.27 | – | – |
| CC(C)c1c(/C=c2\[nH]c(=O)/c(=C/c3ccc(F)c(F)c3)[nH]c2=O)ncn1CCCN1CCOCC1 [PLN-2-63] | < 0.5 | 72.2 ± 4.86 | 55.3 ± 3.42 | 64.9 ± 5.12 | – | – | – |
| O=c1[nH]/c(=C\c2ncn(CCCN3CCOCC3)c2C2CC2)c(=O)[nH]/c1=C\c1cccc(Oc2ccc(F)cc2)c1 [PLN-2-4-1, (3Z,6Z)-3-(3-(p-Fluorophenoxy)phenyl)methylene-6-((5-cyclopropyl-1-(3-morpholinyl)propylimidazol-4-yl)methylene)piperazine-2,5-dione, hydrochloride] | – | – | – | – | – | – | solubility at 24 h [2]: > 10000 µg/mL; IC50 (NCI-H460; hydrochloride): 23.8 ± 1.36 nM |
| CC(C)c1c(/C=c2\[nH]c(=O)/c(=C/c3cc(F)ccc3F)[nH]c2=O)ncn1CCCN1CCOCC1 [PLN-2-7, (3Z,6Z)-3-(2,5-difluorophenyl)methylene-6-((5-isopropyl-1-(3-morpholinyl)propylimidazol-4-yl)methylene)piperazine-2,5-dione] | < 0.5 | 6.12 ± 0.43 | 4.92 ± 1.48 | 3.3 ± 1.88 | 4.03 ± 0.19 | 211.6 to 213.6 | – |
| CC(C)c1c(/C=c2\[nH]c(=O)/c(=C/c3cccc(OC(F)(F)F)c3)[nH]c2=O)ncn1CCCN1CCOCC1 [PLN-2-53, (3Z,6Z)-3-(3-Tifluoromethoxyphenyl)methylene-6-((5-isopropyl-1-(3-morpholinyl)propylimidazol-4-yl)methylene)piperazine-2,5-dione] | – | 11.6 ± 1.11 | 7.17 ± 0.52 | 6.55 ± 1.39 | 9.71 ± 0.74 | 251 to 253 | – |
| CC(C)c1c(/C=c2\[nH]c(=O)/c(=C/c3cccc(F)c3)[nH]c2=O)ncn1CCCN1CCO[C@H](C)C1 [PLN-2-56, (3Z,6Z)-3-(3-Fluorophenyl)methylene-6-(5-isopropyl-1-(3-((R)-2-methylmorpholinyl)propylimidazol-4-yl)methylene)piperazine-2,5-dione] | – | 5.59 ± 1.4 | 3.24 ± 0.73 | 4.26 ± 0.25 | 2.62 ± 0.91 | 212 to 214 | – |
